Assay results taken from patent US20220193029A1, “BRYOSTATIN COMPOUNDS FOR ENHANCEMENT OF IMMUNOTHERAPY” (priority 2019, published 2022).

Key:
PKCδ-GFP fusion protein = assay: PKCδ-GFP translocation assay in living CHO-k1 cells (confocal microscopy); format: cell-based, Chinese hamster; conditions: for concentration* (minimum effective concentration required to induce translocation of PKC-GFP to the membrane) / % Translocation: CHO-k1 cells; for % Translocation: maximum translocation of PKCδ-GFP to the plasma membrane at the concentration printed in the same cell, SUW212: only brief translocation observed
Method: (§1) Because a prerequisite for PKC pathway involvement is binding to PKC, compounds were initially evaluated for PKC affinity in a cell-free competitive binding assay with tritiated phorbol dibutyrate ([^3H]-PDBu). Assays were performed with representative members of both the conventional (PKCα) and novel (PKCδ) PKC families. Subsequently, compounds were assayed for PKC activation in living cells using an isoform translocation assay.
Chinese hamster ovary factor K1 (CHO-k1, ATCC) cells were cultured in F-12 Kaighn's media (Hyclone, 10% fetal bovine serum, 1% penicillin/streptomycin added, referred to as F-12+/+ below) at 37° C. in an incubator (5% CO2). Cell cultures were maintained by splitting cells 1:3 when they reached ˜75-100% confluence (every 2-3 days) as follows:
1 mL of the cell suspension was then added to 9 mL of fresh F-12+/+ and the sample was sub-cultured until reaching confluence (˜2-3 days).
Cells were counted using a Countess II Automated Cell Counter (Fisher). The cell suspension was diluted to 240,000 cells/mL with fresh F-12+/+ and 2.5 mL of this diluted stock was added to one well in a 6-well plate. The cells were then cultured for 24 hours.
F-12+/+ was aspirated and cells were washed with F-12−/−. 2 mL of fresh F-12−/− was then added to each well, taking care not to disturb adherent cells. For each well of CHO-k1 cells, 12.5 μL Lipofectamine 2000 reagent (Invitrogen) was added to 250 μL Opti-MEM reduced serum media (Invitrogen) in a polypropylene tube and incubated for 20 minutes at RT. Meanwhile, for each well, 4 μg of PKCδ-GFP pDNA and 250 μL Opti-MEM reduced serum media was added to a separate polypropylene tube. 250 μL of the Lipofectamine 2000 suspension was added to the DNA suspension and the solution incubated for 30 minutes at RT. 500 μL of the Lipofectamine/DNA suspension was added to the respective wells of the 6-well plate. The cells were then incubated at 37° C. (5% CO2) for ˜24 hrs.
F-12+/+ was aspirated and cells were washed with F-12−/−. 2.4 mL of fresh F-12−/− was then added to each well, taking care not to disturb adherent cells. A 4 μg aliquot of PKCδ-GFP pDNA was added to PBS (pH 5.5, final volume 100 μL). 5.6 μL of DA 13:11 (2 mM stock in DMSO) was then added to the DNA solution, and the mixture was gently mixed (by flicking) for 20 seconds, at which point it was added directly to the respective wells of the 6-well plate. The cells were then incubated at 37° C. (5% C02) for ˜24 hrs.
After incubation, the media was aspirated and cells were washed with PBS (2.0 mL) and trypsinized (500 μL). The cell suspension was then diluted with 2.0 mL F-12+/+. 200 μL aliquots were added to 3 wells of a Lab-Tek II 4-well chambered coverglass slide (Fisher), producing 4 slides in total, each with three wells of cells. The cell suspension was directly diluted with 600 μL of additional F-12+/+. The resulting samples were incubated for ˜24 hrs. prior to imaging.
Fluorescent images were obtained using a Leica SP8 White Light Confocal microscope and the Leica AF software package. Prior to analysis, media was aspirated and 800 μL of PBS (Hyclone, without Ca^2+ or Mg^2+) supplemented with glucose (10 mM) was added to each well of the chambered coverglass slide. Bryostatin and bryostatin analogs were diluted to the appropriate concentration in 200 μL of 10 mM glucose in PBS. Cells were located for imaging and data was recorded for three wells in parallel, imaging at predetermined positions in each well using adaptive focus control. Cells were imaged at 30 second intervals following the addition of compound (set to t=0) for 20-40 minutes. Data were recorded at room temperature. Images were exported as .lif files and fluorescence intensity was analyzed using FIJI (NIH) software.

PKCα = target: T1, PKCα (Homo sapiens, UniProt P17252); assay: cell-free competitive PKC binding assay with [3H]-phorbol dibutyrate; conditions: competition with [3H]-PDBu, recombinant human PKC isoform
T1 construct: purchased Invitrogen
Method: as §1
(§2) To a 50 mL polypropylene tube was added Tris-HCl (pH 7.4, 1 M, 1 mL), KCl (1 M, 2 mL), CaCl2) (0.1 M, 30 μL), and bovine serum albumin (BSA, 40 mg, Sigma-Aldrich). This mixture was diluted to 20 mL with deionized H2O and mixed gently. The buffer was stored on ice until use.
(§3) For every two assays, 3.5 mg phosphatidylserine (Avanti Polar Lipids, porcine, 25 mg/mL CHCl3 solution) was concentrated by removing chloroform under a stream of nitrogen followed by reduced pressure. The solid PS was suspended as vesicles in freshly prepared PKC binding assay buffer (3.5 mL) by sonicating six times for 30 sec, with a 30 sec rest between sonications (Branson Sonifier 250, power=2, 50% duty cycle). The resulting milky cloudy mixture (1 mg/mL) was stored on ice until use.
(§4) Assay PKC was prepared by dissolving a 4 μg aliquot of the indicated recombinant human PKC isoform (Invitrogen) into 11.6 mL of PKC binding assay buffer (this amount is sufficient for two assays). The diluted PKC was stored on ice for immediate use.
(§5) ^3H-PDBu (American Radiolabeled Chemicals, Inc.; 1 mCi/mL acetone solution; specific activity: 20 Ci/mmol) was diluted […] with DMSO. The resulting 500 nM stock solution was further diluted with DMSO to 30 nM.
(§6) Compound dilutions were prepared by serially diluting from a chosen “high” concentration by factors of 3 or 4.
(§7) To a polypropylene tube was added 3.3 mL of 1 mg/mL PS vesicles solution, 11 mL of PKC isoform solution, and 1.1 mL of 30 nM ^3H-PDBu solution were added. The resulting solution was vortexed to mix and stored on ice.
(§8) Materials: • Glass-fiber filters (Whatman GF/B) were prepared by soaking them in a solution of aqueous polyethyleneimine (10% by vol, 18 mL) in deionized water (600 mL) for ≥1 h. • 500 mL “rinsing buffer” of 20 mM Tris, pH 7.4 was cooled on ice for the duration of the incubation period and for the remainder of the assay.
(§9) Triplicate data points were obtained for each analog concentration. For each data point, 280 μL of “Master Mix” Solution and 20 μL of analog compound at a specified concentration were added to a polypropylene tube. […] Maximal ^3H-PDBu binding was assessed in triplicate by substitution of the analog compound with 20 μL DMSO. The solutions were vortexed to mix, incubated at 37° C. for 10 min, and incubated on ice for at least 30 min prior to filtration. Using a Brandel Harvester, the assay contents from each polypropylene tube were vacuum-filtered through polyethylenimine-soaked filters, washing with rinsing buffer (3×) and drying first under vacuum for 5 min and then under ambient conditions for ≥2 h. The resulting filters had circular perforations for each data point, which were removed with forceps and placed in a scintillation vial. Scintillation vials were filled with Bio-Safe II scintillation fluid (5 mL) and measured for radioactivity using a Beckman LS 6000SC scintillation counter. Counts per minute (cpm) were averaged for each triplicate dilution. The data were plotted—cpm vs. log(concentration)—using Prism® by GraphPad Software and an IC50 was determined using that program's built-in one-site competition least squares regression function. Ki values were calculated using the equation: Ki=IC50/(1+([3H−PDBu]/Kd)). The Kd of ^3H-PDBu for PKC isoforms was measured separately via saturation binding experiments under identical conditions.

PKCδ = target: T2, PKCδ (Homo sapiens, UniProt Q05655); assay: as above; conditions: competition with [3H]-PDBu, recombinant human PKC isoform
T2 construct: purchased Invitrogen
T2 sequence (Q05655 whole entry, canonical isoform): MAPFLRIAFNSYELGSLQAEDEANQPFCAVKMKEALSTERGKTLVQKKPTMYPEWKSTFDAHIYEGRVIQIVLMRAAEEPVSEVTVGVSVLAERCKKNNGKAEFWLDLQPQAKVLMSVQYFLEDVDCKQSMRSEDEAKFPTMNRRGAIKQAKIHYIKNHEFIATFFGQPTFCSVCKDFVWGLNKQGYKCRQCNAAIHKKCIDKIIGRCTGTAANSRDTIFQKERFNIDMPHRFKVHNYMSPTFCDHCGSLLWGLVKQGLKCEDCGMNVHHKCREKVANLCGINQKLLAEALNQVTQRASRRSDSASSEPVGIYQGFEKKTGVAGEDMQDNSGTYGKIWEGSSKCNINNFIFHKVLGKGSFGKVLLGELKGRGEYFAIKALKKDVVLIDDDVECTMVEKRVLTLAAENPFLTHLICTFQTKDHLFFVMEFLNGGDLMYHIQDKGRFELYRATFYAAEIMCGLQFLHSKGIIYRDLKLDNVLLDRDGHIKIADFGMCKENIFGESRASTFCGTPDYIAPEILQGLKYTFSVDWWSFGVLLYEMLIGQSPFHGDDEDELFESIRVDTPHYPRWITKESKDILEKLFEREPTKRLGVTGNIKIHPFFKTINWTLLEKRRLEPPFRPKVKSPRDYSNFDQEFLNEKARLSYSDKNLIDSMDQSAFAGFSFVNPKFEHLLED
Method: as §1, §2, §3, §4, §5, §6, §7, §8
Triplicate data points were obtained for each analog concentration. For each data point, 280 μL of “Master Mix” Solution and 20 μL of analog compound at a specified concentration were added to a polypropylene tube. […] Maximal ^3H-PDBu binding was assessed in triplicate by substitution of the analog compound with 20 μL DMSO. The solutions were vortexed to mix, incubated at 37° C. for 10 min, and incubated on ice for at least 30 min prior to filtration. Using a Brandel Harvester, the assay contents from each polypropylene tube were vacuum-filtered through polyethylenimine-soaked filters, washing with rinsing buffer (3×) and drying first under vacuum for 5 min and then under ambient conditions for ≥2 h. The resulting filters had circular perforations for each data point, which were removed with forceps and placed in a scintillation vial. Scintillation vials were filled with Bio-Safe II scintillation fluid (5 mL) and measured for radioactivity using a Beckman LS 6000SC scintillation counter. Counts per minute (cpm) were averaged for each triplicate dilution. The data were plotted—cpm vs. log(concentration)—using Prism® by GraphPad Software and an IC50 was determined using that program's built-in one-site competition least squares regression function. […] The Kd of ^3H-PDBu for PKC isoforms was measured separately via saturation binding experiments under identical conditions.

PKC = assay: cell-free PKC binding assay, isoform not given; parameters: species or system human
Method: as §1, §4, §9

[1] = test system: CD22 surface expression in NALM6 cells; assay: CD22 surface expression assay by flow cytometry; format: cell-based, human; conditions: Homo sapiens, NALM-6; At 1 nM, relative to DMSO control; NALM6 cells; read-out: Fold increase CD22 expression
Method: Cell cultures were maintained between 4×10^5 and 3×10^6 cells/mL according to vendor instructions.
Cell suspension from a confluent T75 flask (Fisher) was transferred to a 15 mL falcon tube and centrifuged at 1100 rpm for 7 minutes. […] Cells were counted using a Countess II Automated Cell Counter (Fisher). […] 199 μL of this stock was added to 24 wells (enough for triplicate measurements for 8 different experimental conditions) in a 96-well plate. […] 1 μL of DMSO or the appropriate stock solution of compound in DMSO was added to each well. Cells were incubated for 24 hours, at which point the cell suspensions were transferred to 1.5 mL Eppendorf tubes and diluted with 1.0 mL of PBS (Hyclone, without Ca^2+ or Mg^2+). Samples were centrifuged at 2000 rpm for 5 min at RT. […] Cells were sub-cultured between 2×10^5 and 3×10^6 cells/mL in 24-well plates for an additional 24 hrs-7 days, at which point CD22 surface expression was assayed by flow cytometry.
Cells from one well were counted using a Countess II Automated Cell Counter (Fisher). ˜200,000-300,000 cells from each well were added to 1.5 mL Eppendorf tubes containing PBS (final volume ˜1.2 mL). The cell suspensions were centrifuged at 1500 rpm for 7 minutes at 4° C. The supernatant was aspirated, and the cell pellet was resuspended in 99 μL of pre-chilled FACS buffer (0.5% w/v BSA in PBS). […] Samples were then diluted with an additional 1.0 mL of FACS buffer and centrifuged at 1500 rpm for 7 minutes at 4° C. […] Cells were stained with DAPI and CD22 surface expression was analyzed using the FACScan Analyzer at the Stanford Shared FACS Facility. Data analysis was performed using FlowJo and Microsoft Excel.

SMILES	concentration* (minimum effective concentration required to induce translocation of PKC-GFP to the membrane) (PKCδ-GFP fusion protein) [nM]	% Translocation (PKCδ-GFP fusion protein) [%]	Ki (PKCα) [nM]	Ki (PKCδ) [nM]	activity in the PKC translocation assay at 200 nM (PKCδ-GFP fusion protein; 200 nM)	cytosolic PKC translocated to the plasma membrane (PKCδ-GFP fusion protein; 1000 nM, at about 5 minutes) [%]	binding affinity to PKC, in words (PKC)	sustained translocation of PKC (PKCδ-GFP fusion protein; at up to 1000 nM)	cytosolic PKC translocated to the plasma membrane (PKCδ-GFP fusion protein; 200 nM, at 20 minutes) [%]	fold induction at 0.001 µM [1]
CCC/C=C/C=C/C(=O)O[C@H]1/C(=C/C(=O)OC)C[C@H]2C[C@H]([C@@H](C)O)OC(=O)C[C@H](O)C[C@@H]3C[C@H](OC(C)=O)C(C)(C)[C@](O)(C[C@@H]4C/C(=C\C(=O)OCc5ccccc5)C[C@H](/C=C/C(C)(C)[C@]1(O)O2)O4)O3 [SUW220]	1000	50	16	15						
CCCC=CC=CC(=O)OC1C(=CC(=O)OC)CC2CC(C(C)O)OC(=O)CC(O)CC3CC(OC(C)=O)C(C)(C)C(O)(CC4CC(OC(=O)CCc5c[nH]c6ccccc56)CC(C=CC(C)(C)C1(O)O2)O4)O3 (centres unmarked) [SUW210]	1000	75	5.6	7.3	inactive	~70	high affinity PKC binders			
CCC/C=C/C=C/C(=O)O[C@H]1/C(=C/C(=O)OC)C[C@H]2C[C@H]([C@@H](C)O)OC(=O)C[C@H](O)C[C@@H]3C[C@H](OC(C)=O)C(C)(C)[C@](O)(C[C@@H]4C[C@H](OC(=O)CN(C)C)C[C@H](/C=C/C(C)(C)[C@]1(O)O2)O4)O3 [SUW211]	1000	20	98	27				did not achieve sustained translocation		
CCCCCC#CC(=O)O[C@H]1/C(=C/C(=O)OC)C[C@H]2C[C@H]([C@@H](C)O)OC(=O)C[C@H](O)C[C@@H]3C[C@H](OC(C)=O)C(C)(C)[C@](O)(C[C@@H]4C[C@H](O)C[C@H](/C=C/C(C)(C)[C@]1(O)O2)O4)O3 [SUW204]	200	25							~25	
C=CCOC(=O)/C=C1\C[C@H]2C[C@]3(O)O[C@H](C[C@@H](O)CC(=O)O[C@@H]([C@@H](C)O)C[C@@H]4C/C(=C\C(=O)OC)[C@H](OC(=O)/C=C/C=C/CCC)[C@@](O)(O4)C(C)(C)/C=C/[C@@H](C1)O2)C[C@H](OC(C)=O)C3(C)C [SUW230]	200	65	4.2	9.4						
C=C1CC2C=CC(C)(C)C3(O)OC(CC(=CC(=O)OC)C3OC(=O)C#CCCCCC)CC(C(C)O)OC(=O)CC(O)CC3CC(OC(C)=O)C(C)(C)C(O)(CC(C1)O2)O3 (centres unmarked) [SUW200]	200	70								1.73
